The subject of data set [1] is interleukin-6 (IL-6) release from fresh human whole blood. Description: Ex vivo release of interleukin-6 from fresh human whole blood (ELISA). The class given is cell-based. The note with it: for concentration of IL-6: human whole blood cultures, 24 hours, n = 5. The text has this: Ex vivo assessment of proinflammatory properties of the AP301 peptide in human whole blood. […] In this study, fresh human whole blood has been used, as it represents an approved predictive model system for the assessment of inflammatory response in vivo.
Summary of methodology. It was the goal of this study to determine the proinflammatory signalling capacity of the peptide AP301. Whole blood cultures were used and the secretion of interleukin-6 (IL-6), a very sensitive marker for proinflammatory stimulation, was quantified by ELISA.
Test system 25 ml of freshly taken heparinized blood from • 5 healthy volunteers (HV) was used in the tests. […]
Whole blood cultures. Whole blood (WB) cultures are performed by pipetting 1 ml WB into wells of 24-well-plates. In each experiment, unstimulated and control-stimulated cultures were included.
If possible, the substances and stimulants to be investigated were always added in an identical volume to each well of a given experiment, which is not greater than 10% of the total volume contained in a well. Unstimulated controls received PBS. Volume adjustments and dilutions for different treatments were also done with PBS.
The content of each well was mixed and the plates incubated at 37° C. and 5% CO2 for 24 hours. After incubation the content of each well was transferred to a fresh 1.5 ml microtube and centrifuged at 8,000-9,000×g for 15 minutes. The supernatant of each sample was transferred individually to two 1.5 ml microtubes and kept at −20° C. until use.
Detection of interleukin-6. Interleukin-6 was quantified by a specific ELISA (Human IL-6 ELISA Set, BD Biosciences, Cat. No. 555220) employing an anti-human IL-6 antibody as capture antibody, a biotinylated anti-human IL-6 detection antibody, avidin-horseradish peroxidase conjugate as enzyme reagent and recombinant IL-6 as standard. Absorbance measurement was performed at 450 nm using the Packard FusionReader.
Data analysis. The results for each plate were stored and evaluated using the FusionDataAnalysis Software. […]
For orientation: An ELISA detects its analyte on a solid surface through an enzyme-linked reagent.

For data set [2], the system named is influenza strain A (PR8/34). Description: Relative lung weight as a measure of pulmonary inflammation in mice infected with influenza A. The format is in vivo, mice (strain C57BL/6). To be noted: repeated on days 2 and 4. The procedure:
Infection with influenza virus causes the development of a pulmonary inflammation. Laboratory mice (strain C57BL/6, 8 weeks old) were infected per-nasal with the influenza strain A (PR8/34) at a dose of 150 PFU. On days 3, 5, 7 and 9 following the infection, the lungs were taken out of 8 mice, respectively, and the relative lung weight was determined as a measure of the pulmonary inflammation.
Treatment of the pulmonary inflammation by administering the neuraminidase inhibitor or administering a combination of neuraminidase inhibitor and peptide AP301. Laboratory mice (strain C57BL/6, 8 weeks old) were infected per-nasal with the influenza strain A (PR8/34) at a dose of 150 PFU. Subsequently, each test animal received an oral administration of 10 mg/kg Oseltamivir (neuraminidase inhibitor) and an intratracheal administration of 10 μg/test animal of peptide AP301. The treatment was repeated on test days 2 and 4. On days 5, 7 and 9 following the infection, the lungs were taken out of 30 mice, respectively, and the relative lung weight was determined as a measure of the pulmonary inflammation. The results are shown graphically in FIG. 2. […]
On days 7 and 9 following the infection, the lungs were taken out of 20 mice, respectively, and the relative lung weight was determined as a measure of the pulmonary inflammation. […]

SMILES strings stand for the structures.

Take `C[C@@H]1NC(=O)CNC(=O)[C@H](CCC(=O)O)NC(=O)[C@@H]2CCCN2C(=O)[C@H]([C@@H](C)O)NC(=O)[C@H](CCC(=O)O)NC(=O)[C@H](CCCNC(=N)N)NC(=O)[C@H](CCC(N)=O)NC(=O)CNC(=O)[C@@H](N)CSSC[C@@H](C(=O)O)NC(=O)[C@H](Cc2ccc(O)cc2)NC(=O)[C@H](Cc2c[nH]c3ccccc23)NC(=O)[C@@H]2CCCN2C(=O)[C@H](CCCCN)NC(=O)[C@H](C)NC(=O)[C@H](CCC(=O)O)NC1=O` [AP301, (NH2) Cys-Gly-Gln-Arg-Glu-Thr-Pro-Glu-Gly-Ala-Glu-Ala-Lys-Pro-Trp-Tyr-Cys (COOH)]: the “induction of IL-6 secretion (in words)” value in data set [1] (all concentrations tested (10 μg/ml to 1 ng/ml for peptide; high and low doses of LPS), five healthy donors) is “did not induce any detectable level of IL-6 secretion”. Moreover, the “TNF receptor binding activity / proinflammatory response (concluded from IL-6 release)” value in data set [1] (ex vivo human whole blood model) was “does not exhibit any TNF receptor binding activity”. Also, the “concentration of IL-6” value in data set [1] (test item concentration 1 ng/ml), in data set [1] (test item concentration 3 ng/ml), in data set [1] (test item concentration 1 mg/ml) and in data set [1] (test item concentration 10 mg/ml) was “less than 0.5 pg/ml” each time.

As to `CCOC(=O)C1=C[C@@H](OC(CC)CC)[C@H](NC(C)=O)[C@@H](N)C1` [Oseltamivir], the “reduction of pulmonary inflammation, as measured by the lung weight” value in data set [2] (Example 2: 150 PFU per-nasal, Oseltamivir 10 mg/kg oral, AP301 10 μg/test animal intratracheal, lungs on days 5, 7 and 9) is reported as “just a moderate effect on reducing the pulmonary inflammation”.

In the case of `CC(=O)N[C@H]1[C@H]([C@H](O)[C@H](O)CO)OC(C(=O)O)=C[C@@H]1N=C(N)N` [Zanamivir], the “reduction of pulmonary inflammation, as measured by the lung weight” value in data set [2] (Example 4: 150 PFU per-nasal, Zanamivir 1.5 mg/kg nasal, AP301 50 μg/test animal intratracheal, lungs on days 7 and 9) is reported as “just a moderate effect on reducing the pulmonary inflammation”.
